Key:
advanced pancreatic NET = conditions: patients with advanced pancreatic NET; cited from earlier work
Excerpt: Other treatment modalities that have shown promise as antiproliferative agents for advanced NET include mTOR or tyrosine kinase inhibitors. […] The combination of everolimus and octreotide LAR also stabilised tumour growth in patients with carcinoid NET [32].

[1] = Anti-lanreotide antibodies (radioimmunoprecipitation assay with confirmatory competition); type: in vivo, human (patients); conditions: RIPA
Excerpt: (§1) Safety analyses included AEs (coded using the Medical Dictionary for Regulatory Activities [MedDRA] version 11.1), vital signs, and serum haematology and biochemistry. Blood samples for analysis of lanreotide trough serum levels and, if applicable, for evaluation of the presence and specificity of anti-lanreotide antibodies were collected at screening and at weeks 8, 20, 32, 44, 56, 68 and 92, just before drug administration.
(§2) Tumour biomarkers, serum lanreotide concentrations and anti-lanreotide antibodies were analysed in a central laboratory. Serum CgA levels were determined using a radioimmunoassay (RIA) with coefficients of variation (CVs) of 6–10% (Cisbio International, Gif-sur-Yvette, France), and urinary 5-HIAA levels were measured using high-performance liquid chromatography with CVs of 4–6% (Bio-rad Laboratories GmbH, München, Germany). Circulating lanreotide concentrations were measured using a validated RIA with [^125I]-labelled lanreotide as a competitor for the quantification of lanreotide. During assay validation, the lower limit of quantification for lanreotide was 0.078 ng/mL and CVs were 2.3–13.6%. Anti-lanreotide antibodies were detected using a radioimmunoprecipitation assay (RIPA) with […] for immune-complex precipitation and [^125I]-labelled lanreotide as the tracer. Results were expressed as the percentage of precipitation. […]

[2] = Lanreotide trough serum levels (validated RIA with 125I-labelled lanreotide); type: in vivo, human (patients); conditions: human, subcutaneous, mean ± SD
Protocol: Efficacy (radiological, biochemical and clinical) and pharmacokinetic (PK) assessments were performed every 12 weeks and at the final study evaluation, 28 (±5) days after the final lanreotide dose. AEs and concomitant treatments were recorded at each 4-weekly treatment visit and at the final evaluation.
as §1
as §2, with “precipitation. During validation, the assay sensitivity was 1/3,200,000 using a rabbit polyclonal anti-lanreotide antibody and intra- and inter-assay precision values were <5.7% and <5.3%, respectively. The screening assay cutpoint was determined as the 95th percentile of the distribution obtained with pre-treatment samples from 22 patients from the study.” for “precipitation.”

Structure (SMILES)	PFS (advanced pancreatic NET)	Patients with anti-lanreotide antibodies detected ([1]; assessments after week 8, two patients, one of them temporarily)	Anti-lanreotide antibodies in serum ([1]; week 8, all 25 patients tested)	level at 3360 h ([2]; week 20, after five injections of 120 mg every 28 days, n = 27, read-out: Steady-state trough serum lanreotide level)	level at 5376 h ([2]; week 32, 120 mg every 28 days, read-out: Mean trough serum lanreotide level (maximum))	level at 15456 h ([2]; week 92, 120 mg every 28 days, read-out: Mean trough serum lanreotide concentration)
CCN(CC)CCNC(=O)c1c(C)[nH]c(/C=C2\C(=O)Nc3ccc(F)cc32)c1C [sunitinib]	11.4 months	–	–	–	–	–
CO[C@H]1C[C@@H]2CC[C@@H](C)[C@@](O)(O2)C(=O)C(=O)N2CCCC[C@H]2C(=O)O[C@H]([C@H](C)C[C@@H]2CC[C@@H](OCCO)[C@H](OC)C2)CC(=O)[C@H](C)/C=C(\C)[C@@H](O)[C@@H](OC)C(=O)[C@H](C)C[C@H](C)/C=C/C=C/C=C/1C [everolimus]	11.0 months	–	–	–	–	–
CC(C)[C@@H]1NC(=O)[C@H](CCCCN)NC(=O)[C@@H](Cc2c[nH]c3ccccc23)NC(=O)[C@H](Cc2ccc(O)cc2)NC(=O)[C@@H](NC(=O)[C@H](N)Cc2ccc3ccccc3c2)CSSC[C@@H](C(=O)N[C@H](C(N)=O)[C@@H](C)O)NC1=O [lanreotide]	–	7%	negative	5.2 ± 2 ng/mL	6 ± 2.9 ng/mL	5.3 ± 2 ng/mL

Reference: paper PMC3853091, “Antiproliferative effects of lanreotide autogel in patients with progressive, well-differentiated neuroendocrine tumours: a Spanish, multicentre, open-label, single arm phase II study” (BMC Cancer, 2013)
